Laboratory results as given in patent US9505745B2, “Enhancer of zeste homolog 2 inhibitors” (GlaxoSmithKline Intellectual Property (No.2) Limited, priority 2013, dated 2016).
Where a name gives a salt, the structure may show the parent alone.

Molecular target: EZH2 within the PRC2 complex (Homo sapiens (Human), UniProt Q15910)
Assay: EZH2 methyltransferase SPA, biotinylated histone H3K27 peptide substrate (Assay Protocol 2)
Format: biochemical
Conditions: 3H-SAM, ≦10 nM approaches limit of detection
Procedure: Compounds contained herein were evaluated for their ability to inhibit the methyltransferase activity of EZH2 within the PRC2 complex. Human PRC2 complex was prepared by co-expressing each of the 5 member proteins (FLAG-EZH2, EED, SUZ12, RbAp48, AEBP2) in Sf9 cells followed by co-purification. Enzyme activity was measured in a scintillation proximity assay (SPA) where a tritiated methyl group is transferred from 3H-SAM to a lysine residue on a biotinylated, unmethylated peptide substrate derived from histone H3. The peptides were captured on streptavidin-coated SPA beads and the resulting signal was read on a ViewLux plate reader.
Part A. Compound Preparation
• 4. Prepare 10 mM stock of compounds from solid in 100% DMSO. • 5. Set up an 11-point serial dilution (1:4 dilution, top concentration 10 mM) in 100% DMSO for each test compound in a 384 well plate leaving columns 6 and 18 for DMSO controls. • 6. Dispense 10 nL of compound from the dilution plate into reaction plates (Corning, 384-well polystyrene NBS, Cat#3673). Part B. Reagent Preparation Prepare the following solutions: • 7. 1× Base Buffer, 50 mM Tris-HCl, pH 8, 2 mM MgCl2: Per 1 L of base buffer, combine 1 M Tris-HCl, pH 8 (50 mL), 1 M MgCl2 (2 mL), and distilled water (948 mL). • 8. 1× Assay Buffer: Per 10 mL of 1× Assay Buffer, combine 1× Base Buffer (9.96 mL), 1 M DTT (40 uL), and 10% Tween-20 (1 uL) to provide a final concentration of 50 mM Tris-HCl, pH 8, 2 mM MgCl2, 4 mM DTT, 0.001% Tween-20. • 9. 2× Enzyme Solution: Per 10 mL of 2× Enzyme Solution, combine 1× Assay Buffer (9.99 mL) and 3.24 uM EZH2 5 member complex (6.17 uL) to provide a final enzyme concentration of 1 nM. • 10. SPA Bead Solution: Per 1 mL of SPA Bead Solution, combine Streptavidin coated SPA beads (PerkinElmer, Cat#RPNQ0261, 40 mg) and 1× Assay Buffer (1 mL) to provide a working concentration of 40 mg/mL. • 11. 2× Substrate Solution: Per 10 mL of 2× Substrate Solution, combine 40 mg/mL SPA Bead Solution (375 uL), 1 mM biotinylated histone H3K27 peptide (200 uL), 12.5 uM 3H-SAM (240 uL; 1 mCi/mL), 1 mM cold SAM (57 uL), and 1× Assay Buffer (9.13 mL) to provide a final concentration of 0.75 mg/mL SPA Bead Solution, 10 uM biotinylated histone H3K27 peptide, 0.15 uM 3H-SAM (˜12 uCi/mL 3H-SAM), and 2.85 uM cold SAM. • 12. 2.67× Quench Solution: Per 10 mL of 2.67× Quench Solution, combine 1× Assay Buffer (9.73 mL) and 10 mM cold SAM (267 uL) to provide a final concentration of 100 uM cold SAM. Part C. Assay Reaction in 384-well Grenier Bio-One Plates Compound Addition • 3. Stamp 10 nL/well of 1000× Compound to test wells (as noted above). • 4. Stamp 10 nL/well of 100% DMSO to columns 6 & 18 (high and low controls, respectively). Assay • 10. Dispense 5 uL/well of 1× Assay Buffer to column 18 (low control reactions). • 11. Dispense 5 uL/well of 2× Substrate Solution to columns 1-24 (note: substrate solution should be mixed to ensure homogeneous bead suspension before dispensing into matrix reservoir). • 12. Dispense 5 uL/well of 2× Enzyme Solution to columns 1-17, 19-24. • 13. Incubate the reaction for 60 min at room temperature. Quench • 5. Dispense 6 uL/well of the 2.67× Quench Solution to columns 1-24. • 6. Seal assay plates and spin for ˜1 min at 500 rpm. • 7. Dark adapt plates in the ViewLux instrument for 15-60 min. Read plates • 2. Read the assay plates on the Viewlux Plate Reader utilizing the 613 nm emission filter or clear filter (300 s exposure). Reagent addition can be done manually or with automated liquid handler. Results
Percent inhibition was calculated relative to the DMSO control for each compound concentration and the resulting values were fit using standard IC50 fitting parameters within the ABASE data fitting software package.

EZH2 within the PRC2 complex, sequence (Q15910 whole entry): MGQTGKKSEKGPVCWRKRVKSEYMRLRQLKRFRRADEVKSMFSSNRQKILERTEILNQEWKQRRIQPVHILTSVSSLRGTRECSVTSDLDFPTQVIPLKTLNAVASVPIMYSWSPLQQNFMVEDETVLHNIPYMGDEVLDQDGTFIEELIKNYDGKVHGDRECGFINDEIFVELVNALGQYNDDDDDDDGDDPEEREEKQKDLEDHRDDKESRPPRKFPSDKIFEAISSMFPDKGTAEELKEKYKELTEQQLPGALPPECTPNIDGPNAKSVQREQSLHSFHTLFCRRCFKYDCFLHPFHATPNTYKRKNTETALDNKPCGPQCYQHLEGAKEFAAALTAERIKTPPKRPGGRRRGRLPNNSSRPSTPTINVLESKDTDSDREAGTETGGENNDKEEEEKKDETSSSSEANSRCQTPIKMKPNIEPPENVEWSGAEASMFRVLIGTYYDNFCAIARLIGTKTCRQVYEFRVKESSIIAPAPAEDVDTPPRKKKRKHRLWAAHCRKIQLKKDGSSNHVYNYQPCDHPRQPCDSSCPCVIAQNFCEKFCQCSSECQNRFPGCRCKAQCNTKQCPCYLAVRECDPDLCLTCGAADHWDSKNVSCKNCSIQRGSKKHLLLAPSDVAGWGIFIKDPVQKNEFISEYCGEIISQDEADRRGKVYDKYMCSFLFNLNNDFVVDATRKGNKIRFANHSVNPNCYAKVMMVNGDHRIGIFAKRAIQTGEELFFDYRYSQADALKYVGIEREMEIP
EZH2 within the PRC2 complex, sequence (O75530 whole entry partner): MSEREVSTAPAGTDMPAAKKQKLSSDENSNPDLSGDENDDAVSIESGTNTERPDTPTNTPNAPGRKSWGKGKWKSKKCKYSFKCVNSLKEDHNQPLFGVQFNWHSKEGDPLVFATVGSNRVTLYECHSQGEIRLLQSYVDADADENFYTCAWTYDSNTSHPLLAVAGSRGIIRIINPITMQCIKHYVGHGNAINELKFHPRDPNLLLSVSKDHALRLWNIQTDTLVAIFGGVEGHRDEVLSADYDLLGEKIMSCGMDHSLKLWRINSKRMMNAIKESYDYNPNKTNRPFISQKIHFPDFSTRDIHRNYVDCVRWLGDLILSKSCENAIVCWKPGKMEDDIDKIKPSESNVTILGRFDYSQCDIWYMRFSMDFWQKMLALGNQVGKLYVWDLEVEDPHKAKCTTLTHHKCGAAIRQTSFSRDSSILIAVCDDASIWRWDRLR
EZH2 within the PRC2 complex, sequence (Q15022 whole entry partner): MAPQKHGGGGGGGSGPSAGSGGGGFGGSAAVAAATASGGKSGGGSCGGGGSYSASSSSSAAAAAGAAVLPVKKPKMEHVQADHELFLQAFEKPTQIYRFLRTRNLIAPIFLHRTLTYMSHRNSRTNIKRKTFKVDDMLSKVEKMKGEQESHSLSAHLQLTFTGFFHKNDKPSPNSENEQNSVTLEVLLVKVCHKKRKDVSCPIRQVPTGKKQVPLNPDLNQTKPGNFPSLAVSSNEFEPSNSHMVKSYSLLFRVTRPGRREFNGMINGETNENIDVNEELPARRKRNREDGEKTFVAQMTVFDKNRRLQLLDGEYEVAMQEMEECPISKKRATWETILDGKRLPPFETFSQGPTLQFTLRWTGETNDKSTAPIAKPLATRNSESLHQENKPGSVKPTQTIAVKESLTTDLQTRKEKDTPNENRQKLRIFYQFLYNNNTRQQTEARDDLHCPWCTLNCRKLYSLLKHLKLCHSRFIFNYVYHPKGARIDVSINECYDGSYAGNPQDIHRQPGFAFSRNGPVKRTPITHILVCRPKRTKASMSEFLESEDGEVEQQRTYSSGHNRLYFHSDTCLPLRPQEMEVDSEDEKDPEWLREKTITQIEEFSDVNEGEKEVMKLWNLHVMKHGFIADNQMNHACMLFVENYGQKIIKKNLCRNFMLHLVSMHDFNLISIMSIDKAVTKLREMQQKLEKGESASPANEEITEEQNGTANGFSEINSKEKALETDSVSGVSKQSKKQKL
EZH2 within the PRC2 complex, sequence (Q09028 whole entry partner): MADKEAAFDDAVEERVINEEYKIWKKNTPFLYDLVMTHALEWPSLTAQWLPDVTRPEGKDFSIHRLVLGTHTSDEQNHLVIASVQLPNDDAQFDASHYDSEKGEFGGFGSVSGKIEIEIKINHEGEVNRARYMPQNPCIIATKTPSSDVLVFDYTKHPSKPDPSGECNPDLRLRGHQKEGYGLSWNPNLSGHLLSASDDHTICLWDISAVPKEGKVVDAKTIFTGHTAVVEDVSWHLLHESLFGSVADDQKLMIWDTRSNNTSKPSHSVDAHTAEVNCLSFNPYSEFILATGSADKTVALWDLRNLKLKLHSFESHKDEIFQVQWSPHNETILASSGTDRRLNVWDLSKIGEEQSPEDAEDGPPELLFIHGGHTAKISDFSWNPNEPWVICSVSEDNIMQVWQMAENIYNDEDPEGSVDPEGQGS
EZH2 within the PRC2 complex, sequence (Q6ZN18 whole entry partner): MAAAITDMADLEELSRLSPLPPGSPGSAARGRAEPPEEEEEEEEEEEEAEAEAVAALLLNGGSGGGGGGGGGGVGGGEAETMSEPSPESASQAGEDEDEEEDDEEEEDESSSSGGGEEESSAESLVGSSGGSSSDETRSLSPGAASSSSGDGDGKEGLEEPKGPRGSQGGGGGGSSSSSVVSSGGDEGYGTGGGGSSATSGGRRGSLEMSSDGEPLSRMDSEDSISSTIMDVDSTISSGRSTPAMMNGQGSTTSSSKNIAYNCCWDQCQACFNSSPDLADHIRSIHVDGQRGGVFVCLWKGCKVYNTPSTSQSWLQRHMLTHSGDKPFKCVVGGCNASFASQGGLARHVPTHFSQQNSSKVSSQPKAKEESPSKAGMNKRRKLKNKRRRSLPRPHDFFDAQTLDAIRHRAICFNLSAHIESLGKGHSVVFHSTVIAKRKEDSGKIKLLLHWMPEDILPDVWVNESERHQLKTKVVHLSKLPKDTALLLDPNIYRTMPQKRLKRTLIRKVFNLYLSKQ

Row | SMILES | IC50
1 | CCC(c1scc(C(=O)NCc2c(C)cc(C)[nH]c2=O)c1C)[C@H]1CC[C@H](N(C)C)CC1 (single isomer, unassigned; (+)) [Example 45, (+)-N-((4,6-Dimethyl-2-oxo-1,2-dihydropyridin-3-yl)methyl)-5-(1-((trans)-4-(dimethylamino)cyclohexyl)propyl)-4-methylthiophene-3-carboxamide] | ≤ 10 nM
2 | CCC(c1scc(C(=O)NCc2c(C)cc(C)[nH]c2=O)c1C)[C@H]1CC[C@@H](N(C)C)CC1 (single isomer, unassigned; (+)) [Example 46, (+)-N-((4,6-Dimethyl-2-oxo-1,2-dihydropyridin-3-yl)methyl)-5-(1-((cis)-4-(dimethylamino)cyclohexyl)propyl)-4-methylthiophene-3-carboxamide] | 316 nM
3 | CCC(c1scc(C(=O)NCc2c(C)cc(C)[nH]c2=O)c1C)[C@H]1CC[C@H](N(C)C)CC1 (single isomer, unassigned; (-)) [Example 44, (−)-N-((4,6-Dimethyl-2-oxo-1,2-dihydropyridin-3-yl)methyl)-5-(1-((trans)-4-(dimethylamino)cyclohexyl)propyl)-4-methylthiophene-3-carboxamide] | 20 nM
4 | CCC(c1scc(C(=O)NCc2c(C)cc(C)[nH]c2=O)c1C)[C@H]1CC[C@@H](N(C)C)CC1 (single isomer, unassigned; (-)) [Example 47, (−)-N-((4,6-Dimethyl-2-oxo-1,2-dihydropyridin-3-yl)methyl)-5-(1-((cis)-4-(dimethylamino)cyclohexyl)propyl)-4-methylthiophene-3-carboxamide] | 13 nM
5 | C/C=C(/c1scc(C(=O)NCc2c(C)cc(C)[nH]c2=O)c1C)C1CCNCC1 [Example 33, (E)-N-((4,6-Dimethyl-2-oxo-1,2-dihydropyridin-3-yl)methyl)-4-methyl-5-(1-(piperidin-4-yl)prop-1-en-1-yl)thiophene-3-carboxamide] | ≤ 10 nM
6 | C/C=C(/c1scc(C(=O)NCc2c(C)cc(C)[nH]c2=O)c1C)[C@H]1CC[C@H](NC(=O)OC(C)(C)C)CC1 [Example 34, tert-Butyl ((trans)-4-((E)-1-(4-(((4,6-dimethyl-2-oxo-1,2-dihydropyridin-3-yl)methyl)carbamoyl)-3-methylthiophen-2-yl)prop-1-en-1-yl)cyclohexyl)carbamate] | 100 nM
7 | C/C=C(/c1scc(C(=O)NCc2c(C)cc(C)[nH]c2=O)c1C)[C@H]1CC[C@H](N)CC1 [Example 35, 5-((E)-1-((trans)-4-Aminocyclohexyl)prop-1-en-1-yl)-N-((4,6-dimethyl-2-oxo-1,2-dihydropyridin-3-yl)methyl)-4-methylthiophene-3-carboxamide] | 13 nM
8 | Cc1cc(C)c(CNC(=O)c2csc(C(O)[C@H]3CC[C@H](N)CC3)c2C)c(=O)[nH]1 (stereo partly drawn) [Example 37, 5-(((trans)-4-Aminocyclohexyl)(hydroxy)methyl)-N-((4,6-dimethyl-2-oxo-1,2-dihydropyridin-3-yl)methyl)-4-methylthiophene-3-carboxamide] | 501 nM
9 | Cc1cc(C)c(CNC(=O)c2csc(C(O)[C@H]3CC[C@H](N(C)C)CC3)c2C)c(=O)[nH]1 (stereo partly drawn) [Example 38, N-((4,6-dimethyl-2-oxo-1,2-dihydropyridin-3-yl)methyl)-5-(((trans)-4-(dimethylamino)cyclohexyl)(hydroxy)methyl)-4-methylthiophene-3-carboxamide] | 158 nM
10 | CCC(c1scc(C(=O)NCc2c(C)cc(C)[nH]c2=O)c1C)C1CCN(C(=O)OC(C)(C)C)CC1 (centres unmarked) [Example 39, tert-Butyl 4-(1-(4-(((4,6-dimethyl-2-oxo-1,2-dihydropyridin-3-yl)methyl)carbamoyl)-3-methylthiophen-2-yl)propyl)piperidine-1-carboxylate] | 50 nM
11 | CCC(c1scc(C(=O)NCc2c(C)cc(C)[nH]c2=O)c1C)C1CCNCC1 (centres unmarked) [Example 40, N-((4,6-Dimethyl-2-oxo-1,2-dihydropyridin-3-yl)methyl)-4-methyl-5-(1-(piperidin-4-yl)propyl)thiophene-3-carboxamide] | 20 nM
12 | CC[C@@H](c1scc(C(=O)NCc2c(C)cc(C)[nH]c2=O)c1C)N1CCC(N(C)C)CC1 [Example 41, (S)-(−)-N-((4,6-Dimethyl-2-oxo-1,2-dihydropyridin-3-yl)methyl)-5-(1-(4-(dimethylamino)piperidin-1-yl)propyl)-4-methylthiophene-3-carboxamide] | 20 nM
13 | CC[C@H](c1scc(C(=O)NCc2c(C)cc(C)[nH]c2=O)c1C)N1CCC(N(C)C)CC1 [Example 42, (R)-(+)-N-((4,6-dimethyl-2-oxo-1,2-dihydropyridin-3-yl)methyl)-5-(1-(4-(dimethylamino)piperidin-1-yl)propyl)-4-methylthiophene-3-carboxamide] | 316 nM
14 | CCC(c1scc(C(=O)NCc2c(C)cc(C)[nH]c2=O)c1C)[C@H]1CC[C@H](N)CC1 (stereo partly drawn) [Example 43, 5-(1-((trans)-4-Aminocyclohexyl)propyl)-N-((4,6-dimethyl-2-oxo-1,2-dihydropyridin-3-yl)methyl)-4-methylthiophene-3-carboxamide] | 16 nM
15 | CCC(=C1CCNCC1)c1scc(C(=O)NCc2c(C)cc(C)[nH]c2=O)c1C [Example 48, N-((4,6-dimethyl-2-oxo-1,2-dihydropyridin-3-yl)methyl)-4-methyl-5-(1-(piperidin-4-ylidene)propyl)thiophene-3-carboxamide] | ≤ 10 nM
16 | C=C(c1scc(C(=O)NCc2c(C)cc(C)[nH]c2=O)c1C)C1CCNCC1 [Example 49, N-((4,6-dimethyl-2-oxo-1,2-dihydropyridin-3-yl)methyl)-4-methyl-5-(1-(piperidin-4-yl)vinyl)thiophene-3-carboxamide] | 126 nM
17 | CCN(c1sc(Br)c(C(=O)NCc2c(C)cc(C)[nH]c2=O)c1C)[C@H]1CC[C@H](N(C)C)CC1 [Example 50, 2-Bromo-N-((4,6-dimethyl-2-oxo-1,2-dihydropyridin-3-yl)methyl)-5-(((trans)-4-(dimethylamino)cyclohexyl)(ethyl)amino)-4-methylthiophene-3-carboxamide hydrochloride] | 20 nM
18 | CCN(c1sc(C#N)c(C(=O)NCc2c(C)cc(C)[nH]c2=O)c1C)[C@H]1CC[C@H](N(C)C)CC1 [Example 51, 2-Cyano-N-((4,6-dimethyl-2-oxo-1,2-dihydropyridin-3-yl)methyl)-5-(((trans)-4-(dimethylamino)cyclohexyl)(ethyl)amino)-4-methylthiophene-3-carboxamide] | 25 nM
19 | CCN(CC)c1sc(Br)c(C(=O)NCc2c(C)cc(C)[nH]c2=O)c1C [Example 52, 2-Bromo-5-(diethylamino)-N-((4,6-dimethyl-2-oxo-1,2-dihydropyridin-3-yl)methyl)-4-methylthiophene-3-carboxamide] | 316 nM
20 | CCN(c1sc(Cl)c(C(=O)NCc2c(C)cc(C)[nH]c2=O)c1C)C1CCOCC1 [Example 53, 2-Chloro-N-((4,6-dimethyl-2-oxo-1,2-dihydropyridin-3-yl)methyl)-5-(ethyl(tetrahydro-2H-pyran-4-yl)amino)-4-methylthiophene-3-carboxamide] | 16 nM
